# Data: publication PMC5331433, “Ustiloxin G, a New Cyclopeptide Mycotoxin from Rice False Smut Balls” (Toxins, 2017)
# Experiments:
# A375 = experiment: Cytotoxicity, MTT assay, A375; assay type: cell-based, human; settings: 24 h treatment, absorbance 570 nm, three replicates
# Method: Cytotoxicity of the compounds were tested against human carcinoma cells using the microculture methyl-thiazolyl-tetrazolium (MTT) assay as described previously. Briefly, the cell lines were maintained in a humidified atmosphere containing 5% CO2 at 37 °C. For preparing working solution, 1 μmol of each purified ustiloxin was dissolved in 10 mL of ultrapure water to obtain the stock solution (100 μM), which was further diluted to a series of concentrations (50, 25, 12.5, 6.25, 3.125, 1, 0.1, 1 × 10^−2, 1 × 10^−3, 1 × 10^−4, 1 × 10^−5 μM) with ultrapure water. Normally, 200 μL of the cell suspensions (5 × 10^4 cells/mL) was plated in 96-well culture plates at 37 °C. After 12 h, 20 μL of working solution was added to each well respectively and cultured at 37 °C for 24 h. Then, MTT was dissolved in saline to 5 mg/mL, and 20 μL of this solution was added to each well. After 4 h, the medium was removed, and then 100 μL of DMSO was added to dissolve any formazan crystals formed. Absorbance was then determined at 570 nm. The cell lines of colon cancer cells (HCT-116), non-small-cell lung carcinoma cells (NCI-H1650), gastric cancer cells (BGC-823), and liver hepatocellular carcinoma cells (HepG2) were tested for all isolated compounds. In addition, lung adenocarcinoma cells (A549) were tested on ustiloxins A (2), B (3), and G (1), and melanoma cells (A375) were tested on ustiloxin G (1). […]
# HCT116 = experiment: Cytotoxicity, MTT assay, HCT116; assay type: cell-based, human; settings: 24 h treatment, absorbance 570 nm, three replicates
# Method: (§1) Cytotoxicity of the compounds were tested against human carcinoma cells using the microculture methyl-thiazolyl-tetrazolium (MTT) assay as described previously. Briefly, the cell lines were maintained in a humidified atmosphere containing 5% CO2 at 37 °C. For preparing working solution, 1 μmol of each purified ustiloxin was dissolved in 10 mL of ultrapure water to obtain the stock solution (100 μM), which was further diluted to a series of concentrations (50, 25, 12.5, 6.25, 3.125, 1, 0.1, 1 × 10^−2, 1 × 10^−3, 1 × 10^−4, 1 × 10^−5 μM) with ultrapure water. Normally, 200 μL of the cell suspensions (5 × 10^4 cells/mL) was plated in 96-well culture plates at 37 °C. After 12 h, 20 μL of working solution was added to each well respectively and cultured at 37 °C for 24 h. Then, MTT was dissolved in saline to 5 mg/mL, and 20 μL of this solution was added to each well. After 4 h, the medium was removed, and then 100 μL of DMSO was added to dissolve any formazan crystals formed. Absorbance was then determined at 570 nm. The cell lines of colon cancer cells (HCT-116), non-small-cell lung carcinoma cells (NCI-H1650), gastric cancer cells (BGC-823), and liver hepatocellular carcinoma cells (HepG2) were tested for all isolated compounds. In addition, lung adenocarcinoma cells (A549) were tested on ustiloxins A (2), B (3), and G (1), and melanoma cells (A375) were tested on ustiloxin G (1). Ultrapure water and taxol were used as the negative and positive controls, respectively. All experiments were performed with three replicates.
# BGC-823 = experiment: Cytotoxicity, MTT assay, BGC-823; assay type: cell-based, human; settings: 24 h treatment, absorbance 570 nm, three replicates
# Method: as §1
# A549 = experiment: Cytotoxicity, MTT assay, A549; assay type: cell-based, human; settings: 24 h treatment, absorbance 570 nm, three replicates
# Method: as §1
# HepG2 = experiment: Cytotoxicity, MTT assay, HepG2; assay type: cell-based, human; settings: 24 h treatment, absorbance 570 nm, three replicates
# Method: as §1
# NCI-H1650 = experiment: Cytotoxicity, MTT assay, NCI-H1650; assay type: cell-based, human; settings: 24 h treatment, absorbance 570 nm, three replicates
# Method: as §1
# rice seedlings = experiment: Abnormal swelling of roots and germs of rice seedlings; design: species or system Oryza sativa; settings: observation in words; Figure 3B shows 200 µg/mL of ustiloxin G, variety Lijiang
# Method: (§2) The bioassay was performed using the method described previously with some modifications. Briefly, five 3-day germinated rice seeds of each rice variety were sown onto each well of a 24-well plate, containing 200 μL of working solution. For preparing working solution, 1 mg of each purified compound was dissolved in 1 mL of ultrapure water to obtain the stock solution (1 mg/mL), which was further diluted to a series of concentrations (200, 100, 50, 20, and 10 μg/mL) with ultrapure water. The ultrapure water was used as the negative control, and glyphosate (N-(phosphonomethyl)glycine) at the same concentrations as the positive control. Plates were incubated in a moist chamber at 25 °C in the dark. The length of each radicle or germ was measured after treatment for 48 h. The inhibition of radicle or germ elongation was calculated as follows: Inhibition (%) = [(Lc − Lt)/Lc] × 100, where Lc is the radicle or germ length of the control group, and Lt is the length of the treated group.
# [1] = system: rice (Oryza sativa) seeds, germ; experiment: Inhibition of germ elongation of rice seeds; settings: 48 h, 25 °C, dark, mean of triplicate ± SD
# Method: (§3) Phytotoxicity of the compounds was evaluated by their inhibitory activities on the radicle and germ elongation of rice (Oryza sativa) seeds. Two varieties (Lijiang and Zhonghua 11) of the seeds, which were obtained from Prof. Zejian Guo (Department of Plant Pathology and collected in 2015, China Agricultural University) were used.
# as §2
# (§4) All experiments were performed with three replicates, and the results were represented by their mean values and the standard deviations (SD). The data were carried out using analysis of variance (one-way ANOVA) to detect significant differences by PROC ANOVA of SAS version 8.2.
# [2] = system: rice (Oryza sativa) seeds, radicle; experiment: Inhibition of radicle elongation of rice seeds; settings: 48 h, 25 °C, dark, mean of triplicate ± SD
# Method: as §3, §2, §4
smiles,measurement,setting,value
"CC(=O)O[C@H]1C(=O)[C@@]2(C)[C@H]([C@H](OC(=O)c3ccccc3)[C@]3(O)C[C@H](OC(=O)[C@H](O)[C@@H](NC(=O)c4ccccc4)c4ccccc4)C(C)=C1C3(C)C)[C@]1(OC(C)=O)CO[C@@H]1C[C@@H]2O [Taxol, reference compound]",IC50,"A375; Homo sapiens, A-375, melanoma cells",22 nM
same,IC50,"HCT116; Homo sapiens, HCT-116, colon cancer cells",1.9 nM
same,IC50,"BGC-823; Homo sapiens, BGC-823, gastric cancer cells",0.107 nM
same,IC50,"A549; Homo sapiens, A549, lung adenocarcinoma cells",23 nM
same,IC50,"HepG2; Homo sapiens, HepG2, liver hepatocellular carcinoma cells",14.6 nM
same,IC50,"NCI-H1650; Homo sapiens, NCI-H1650, non-small-cell lung carcinoma cells",1100 nM
"CC[C@@]1(C)Oc2cc(c([S+]([O-])CCO)cc2O)[C@@H](O)[C@H](NC)C(=O)N[C@@H](C(C)C)C(=O)N[C@@H]1C(=O)NCC(=O)O (stereo partly drawn) [Ustiloxin G (1), ustiloxin G]",IC50,A375; melanoma cells,22500 nM
same,abnormal swelling of the roots and germs of rice seedlings,rice seedlings,abnormal swelling
same,IC50,HCT116; colon cancer cells,> 50000 nM
same,IC50,BGC-823; gastric cancer cells,> 50000 nM
same,IC50,A549; lung adenocarcinoma cells,36500 nM
same,IC50,HepG2; liver hepatocellular carcinoma cells,> 50000 nM
same,Inhibition Ratio (%) Seed Germ Var. Lijiang,[1]; 10 µg/mL,2.74 ± 4.76 l %
same,Inhibition Ratio (%) Seed Germ Var. Zhonghua 11,[1]; 10 µg/mL,14.11%
same,Inhibition Ratio (%) Seed Germ Var. Lijiang,[1]; 20 µg/mL,8.89%
same,Inhibition Ratio (%) Seed Germ Var. Zhonghua 11,[1]; 20 µg/mL,14.68%
same,Inhibition Ratio (%) Seed Germ Var. Lijiang,[1]; 50 µg/mL,27.96 ± 3.32 f %
same,Inhibition Ratio (%) Seed Germ Var. Zhonghua 11,[1]; 50 µg/mL,36.29%
same,Inhibition Ratio (%) Seed Germ Var. Lijiang,[1]; 100 µg/mL,36.95 ± 5.23 e %
same,Inhibition Ratio (%) Seed Germ Var. Zhonghua 11,[1]; 100 µg/mL,39.33%
same,Inhibition Ratio (%) Seed Germ Var. Lijiang,[1]; 200 µg/mL,65.01%
same,Inhibition Ratio (%) Seed Germ Var. Zhonghua 11,[1]; 200 µg/mL,50.45%
same,Inhibition Ratio (%) Seed Radicle Var. Lijiang,[2]; 10 µg/mL,12.56%
same,Inhibition Ratio (%) Seed Radicle Var. Zhonghua 11,[2]; 10 µg/mL,27.27%
same,Inhibition Ratio (%) Seed Radicle Var. Lijiang,[2]; 20 µg/mL,17.00%
same,Inhibition Ratio (%) Seed Radicle Var. Zhonghua 11,[2]; 20 µg/mL,31.67%
same,Inhibition Ratio (%) Seed Radicle Var. Lijiang,[2]; 50 µg/mL,37.64 ± 1.21 g %
same,Inhibition Ratio (%) Seed Radicle Var. Zhonghua 11,[2]; 50 µg/mL,54.14 ± 4.20 d %
same,Inhibition Ratio (%) Seed Radicle Var. Lijiang,[2]; 100 µg/mL,90.33%
same,Inhibition Ratio (%) Seed Radicle Var. Zhonghua 11,[2]; 100 µg/mL,90.16 ± 3.62 a %
same,Inhibition Ratio (%) Seed Radicle Var. Lijiang,[2]; 200 µg/mL,95.19 ± 1.92 a %
same,Inhibition Ratio (%) Seed Radicle Var. Zhonghua 11,[2]; 200 µg/mL,93.40 ± 1.91 a %
same,IC50,NCI-H1650; non-small-cell lung carcinoma cells,> 50000 nM
